Activity calls are given as the source filed them.
How the values were obtained:
cells [1] = type: functional, cell-based
[2] = fluconazole-exposed Candida albicans growth modulators – fluorescence, retest, confirmation (AID 2467); type: functional, cell-based
[3] = NIH-3T3 fibroblast cytotoxicity, dose response, cytotoxicity control, cell-based, fluorescence, Alamar Blue, secondary assay (AID 2327); type: functional;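 further: NIH-3T3 mouse fibroblasts cultured with fluconazole at 8 µg/mL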
[4] = biological target: T1, Heat shock factor protein 1 (Mus musculus, UniProt P38532); experiment: decrease of HSF1-responsive luciferase luminescence – cell-based, NIH3T3, dose retest, confirmation (AID 2382); type: functional;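 further: NIH3T3 fibroblasts with HSF1-driven luciferase reporter stressed by proteasome inhibitor MG132; luminescence from HSF1-driven luciferase expression after 8 hours of MG132 stress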
T1 sequence (P38532 whole entry): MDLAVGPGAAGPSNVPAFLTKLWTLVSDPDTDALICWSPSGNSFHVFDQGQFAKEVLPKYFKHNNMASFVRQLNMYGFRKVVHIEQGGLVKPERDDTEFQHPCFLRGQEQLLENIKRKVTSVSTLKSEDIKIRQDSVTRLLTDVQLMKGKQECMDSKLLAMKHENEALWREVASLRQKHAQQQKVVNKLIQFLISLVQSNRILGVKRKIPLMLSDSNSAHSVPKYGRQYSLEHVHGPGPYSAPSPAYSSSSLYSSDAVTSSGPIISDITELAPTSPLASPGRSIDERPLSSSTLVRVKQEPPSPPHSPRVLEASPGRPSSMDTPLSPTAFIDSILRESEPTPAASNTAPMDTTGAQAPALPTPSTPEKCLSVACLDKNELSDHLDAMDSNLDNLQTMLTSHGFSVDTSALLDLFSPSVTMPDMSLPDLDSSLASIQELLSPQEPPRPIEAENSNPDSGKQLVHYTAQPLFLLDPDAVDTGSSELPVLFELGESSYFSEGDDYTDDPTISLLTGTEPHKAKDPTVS

Nonstructural protein 1 = Nonstructural protein 1 (Influenza A virus, UniProt Q194T2); type: functional, Influenza A virus (A/California/07/2009(H1N1))
[5] = system: Streptococcus sp. 'group A'; experiment: Streptococcus pyogenes SK(-)GAS viability under kanamycin – luminescence, BacTiterGlo, confirmation, counter-screen for streptokinase expression inhibitor project, dose response (AID 1900); type: functional, organism-based
cells [6] = type: functional, cell-based; remark: listed apart in the source
Caspase-6 = biological target: T2, Caspase-6 (Homo sapiens, UniProt P55212); experiment: inhibition of CASP6 peptide cleavage – biochemical, VEID-R110 fluorescence, cherry-pick, dose response (AID 720632)
T2 sequence (P55212 whole entry): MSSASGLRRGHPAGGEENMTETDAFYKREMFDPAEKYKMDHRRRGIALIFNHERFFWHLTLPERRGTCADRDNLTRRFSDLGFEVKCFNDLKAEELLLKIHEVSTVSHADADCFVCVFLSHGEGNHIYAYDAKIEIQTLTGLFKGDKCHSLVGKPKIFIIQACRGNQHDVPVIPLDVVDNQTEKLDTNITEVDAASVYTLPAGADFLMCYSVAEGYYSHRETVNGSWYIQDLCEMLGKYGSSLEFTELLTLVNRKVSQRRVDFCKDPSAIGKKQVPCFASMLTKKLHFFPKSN

Vero = experiment: cells; type: functional; conditions: Chlorocebus sabaeus
[7] = biological target: Heat shock protein HSP 90-alpha (Homo sapiens, UniProt P07900); type: functional, organism-based
[8] = biological target: T3, Histone-lysine N-methyltransferase NSD2 (Homo sapiens, UniProt O96028); type: biochemical
T3 sequence (O96028 whole entry): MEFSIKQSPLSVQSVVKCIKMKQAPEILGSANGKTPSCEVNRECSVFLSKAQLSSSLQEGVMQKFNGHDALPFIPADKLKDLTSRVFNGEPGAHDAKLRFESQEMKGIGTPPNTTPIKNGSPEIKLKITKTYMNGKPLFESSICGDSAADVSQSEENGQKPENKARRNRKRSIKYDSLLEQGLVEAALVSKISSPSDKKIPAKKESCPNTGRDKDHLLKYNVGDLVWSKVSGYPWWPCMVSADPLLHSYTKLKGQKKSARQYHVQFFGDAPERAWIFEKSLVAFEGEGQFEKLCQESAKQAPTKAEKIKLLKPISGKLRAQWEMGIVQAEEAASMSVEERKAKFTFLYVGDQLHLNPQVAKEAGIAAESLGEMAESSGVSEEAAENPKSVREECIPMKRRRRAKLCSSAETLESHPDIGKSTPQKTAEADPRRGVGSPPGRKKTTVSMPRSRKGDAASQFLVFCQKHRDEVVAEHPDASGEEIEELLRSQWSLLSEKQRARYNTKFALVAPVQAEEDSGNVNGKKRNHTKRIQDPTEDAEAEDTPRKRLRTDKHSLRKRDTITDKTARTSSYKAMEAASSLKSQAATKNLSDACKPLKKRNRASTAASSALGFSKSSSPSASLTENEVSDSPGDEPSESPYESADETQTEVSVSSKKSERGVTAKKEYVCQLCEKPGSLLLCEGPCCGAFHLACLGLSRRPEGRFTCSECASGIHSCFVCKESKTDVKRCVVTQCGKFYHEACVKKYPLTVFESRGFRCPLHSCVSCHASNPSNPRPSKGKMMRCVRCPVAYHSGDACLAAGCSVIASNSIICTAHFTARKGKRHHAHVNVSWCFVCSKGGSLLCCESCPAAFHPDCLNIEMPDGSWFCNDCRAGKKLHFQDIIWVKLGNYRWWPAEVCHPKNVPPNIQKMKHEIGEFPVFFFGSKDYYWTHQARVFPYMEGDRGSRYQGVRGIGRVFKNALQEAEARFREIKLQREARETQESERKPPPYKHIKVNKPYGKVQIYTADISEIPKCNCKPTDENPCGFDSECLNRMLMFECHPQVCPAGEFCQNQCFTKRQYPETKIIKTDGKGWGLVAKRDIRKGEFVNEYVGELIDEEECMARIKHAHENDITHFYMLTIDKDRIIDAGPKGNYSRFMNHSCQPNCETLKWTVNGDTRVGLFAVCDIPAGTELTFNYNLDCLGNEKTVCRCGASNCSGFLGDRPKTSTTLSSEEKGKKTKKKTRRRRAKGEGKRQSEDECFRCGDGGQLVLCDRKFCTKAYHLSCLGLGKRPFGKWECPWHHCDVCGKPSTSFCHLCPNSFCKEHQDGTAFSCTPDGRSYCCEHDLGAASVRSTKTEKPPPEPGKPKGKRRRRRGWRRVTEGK

Streptococcus = experiment: GAS UMAA2166 growth inhibition – luminescence, BacTiterGlo, counter-screen for streptokinase expression inhibitor project, dose response (AID 1915); type: functional, organism-based;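 further: potency for reduction of bacterial viability or growth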
Protein Tat = biological target: T4, Protein Tat (Human immunodeficiency virus type 1 group M subtype B (isolate HXB2)(HIV-1), UniProt P04608); type: functional;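 further: tat binding to TAR RNA read out by fluorescence polarization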
T4 sequence (P04608 whole entry): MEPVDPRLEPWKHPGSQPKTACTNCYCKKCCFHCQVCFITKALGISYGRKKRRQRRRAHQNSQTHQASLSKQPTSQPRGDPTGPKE

[9] = reduced cellular PGC1a acetyl-lysine signal – cell-based, cherry-picked samples, dose response (AID 720514); type: functional;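 further: potency may reflect raised or lowered acetylation signal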
[10] = activation of miR-122 Renilla sensor silencing – cell-based, Huh7 psiCHECK-miR122, Renilla luciferase, cherry-picked, dose response (AID 651956); type: functional;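 further: huh7 hepatoma cells stably carrying a psiCHECK-2 miR-122 sensor plasmid; renilla luciferase signal reporting endogenous miR-122 activity after 48 h compound exposure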
[11] = general mammalian cell viability loss – inhibitor set, cherry-pick, set 2, cytotoxicity control for miR-122 modulator project, dose response (AID 720697); type: functional, cell-based
P388/ADR = experiment: cells; type: functional; conditions: Mus musculus
P388 = experiment: cells; type: functional; conditions: Mus musculus
SN12K1 = experiment: cells; type: functional; conditions: Homo sapiens
[12] = toxicity toward HepG2 liver cells – cell-based, plate reader, cherry-pick, antagonist series, cytotoxicity control, dose response (AID 743416); type: functional
[13] = non-specific 3'UTR reporter inhibition in Clone20-Shn3RL – cell-based, Renilla luciferase, cherry-picked, counter-screen for Shn3 inhibitor project, dose response (AID 624133); type: functional
[14] = A549 cell cytotoxicity, dose response, cytotoxicity control, plate reader, cherry-pick, antagonist series (AID 743412); type: functional, cell-based
[15] = blockers of bursicon-stimulated LGR2 cAMP reporter – cell-based, HEK293, CRE-luciferase reporter, cherry pick, set 2, dose response (AID 743343); type: functional;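 further: transfected cells were stimulated with diluted bursicon conditioned medium after compound addition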
Paired box protein Pax-8 = Paired box protein Pax-8 (Homo sapiens, UniProt Q06710); experiment: PAX8 transcriptional activity inhibition in RMG-I – RMG-I cells, luciferase, cherry-pick, dose response (AID 687027); type: functional, cell-based;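 further: luciferase reporter driven by Pax8 target thyroperoxidase promoter measured by SteadyGlo luminescence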
[16] = viability loss in HEK293 cells – cell-based, plate reader, cherry-picked samples, cytotoxicity control, dose response (AID 743446); type: functional
[17] = loss of viability in HepG2 cells – cell-based, CellTiter-Glo, cherry-picked, cytotoxicity control for Shn3 inhibitor project, dose response (AID 624134); type: functional
[18] = biological target: T5, Rac GTPase-activating protein 1 (Homo sapiens, UniProt Q9H0H5); experiment: blockers of MgcRacGAP-driven Rac1 GTP hydrolysis – biochemical, ADP Hunter fluorescence, primary and confirmatory, confirmation (AID 624330); type: functional
T5 sequence (Q9H0H5 whole entry): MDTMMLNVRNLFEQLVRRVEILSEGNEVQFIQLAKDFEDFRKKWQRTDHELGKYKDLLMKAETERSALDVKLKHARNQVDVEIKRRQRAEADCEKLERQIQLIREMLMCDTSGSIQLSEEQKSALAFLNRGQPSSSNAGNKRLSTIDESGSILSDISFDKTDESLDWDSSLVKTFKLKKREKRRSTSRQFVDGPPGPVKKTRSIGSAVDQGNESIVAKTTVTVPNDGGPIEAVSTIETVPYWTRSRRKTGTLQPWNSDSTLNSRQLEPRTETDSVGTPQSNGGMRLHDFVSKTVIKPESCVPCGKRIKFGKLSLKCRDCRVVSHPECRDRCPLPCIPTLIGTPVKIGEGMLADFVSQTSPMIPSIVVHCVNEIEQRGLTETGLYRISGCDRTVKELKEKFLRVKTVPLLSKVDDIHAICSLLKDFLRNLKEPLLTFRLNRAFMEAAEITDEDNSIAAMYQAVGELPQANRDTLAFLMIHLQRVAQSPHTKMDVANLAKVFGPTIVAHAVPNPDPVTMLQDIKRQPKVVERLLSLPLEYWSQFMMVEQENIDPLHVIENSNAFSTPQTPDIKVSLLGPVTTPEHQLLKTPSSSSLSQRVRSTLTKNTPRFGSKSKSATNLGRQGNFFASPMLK

[19] = Fluorescence-based cell-based high throughput dose response assay for inhibitors of the interaction of nucleotide-binding oligomerization domain containing 2 (NOD2) and the receptor-interacting serine-threonine kinase 2 (RIPK2).; type: functional, Homo sapiens; conditions: Homo sapiens
[20] = blockade of melanocortin 4 receptor signaling – cell-based, plate reader, cherry pick, counter-screen for LGR2 antagonist project, dose response (AID 743444); type: functional;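 further: transfected HEK 293 cells stimulated with alpha-MSH peptide; potency of inhibitors of the alpha-MSH evoked signal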
[21] = viability loss in HeLa cells – cytotoxicity control for MgcRacGAP inhibitor project, dose response (AID 624300); type: functional
[22] = reduction of Shn3 3'UTR-driven luciferase in osteoblasts – cell-based, Clone20 osteoblasts, firefly luciferase, cherry-picked, dose response (AID 624132); type: functional;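 further: firefly luciferase luminescence from reporter carrying the Shn3 3'UTR in osteoblasts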

Sequence of Paired box protein Pax-8 (Q06710 whole entry): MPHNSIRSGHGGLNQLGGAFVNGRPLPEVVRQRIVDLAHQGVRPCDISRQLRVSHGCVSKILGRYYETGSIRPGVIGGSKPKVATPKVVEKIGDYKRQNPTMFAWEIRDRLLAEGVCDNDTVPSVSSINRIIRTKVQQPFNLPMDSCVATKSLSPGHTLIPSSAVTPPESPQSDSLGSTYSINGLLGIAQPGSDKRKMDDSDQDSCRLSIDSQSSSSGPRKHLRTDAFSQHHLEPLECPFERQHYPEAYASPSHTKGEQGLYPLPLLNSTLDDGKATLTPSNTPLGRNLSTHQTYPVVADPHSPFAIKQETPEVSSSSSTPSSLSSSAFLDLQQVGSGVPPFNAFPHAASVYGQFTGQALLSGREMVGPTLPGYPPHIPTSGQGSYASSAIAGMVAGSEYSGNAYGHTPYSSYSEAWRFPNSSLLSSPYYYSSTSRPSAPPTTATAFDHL
Sequence of Nonstructural protein 1 (Q194T2 whole entry): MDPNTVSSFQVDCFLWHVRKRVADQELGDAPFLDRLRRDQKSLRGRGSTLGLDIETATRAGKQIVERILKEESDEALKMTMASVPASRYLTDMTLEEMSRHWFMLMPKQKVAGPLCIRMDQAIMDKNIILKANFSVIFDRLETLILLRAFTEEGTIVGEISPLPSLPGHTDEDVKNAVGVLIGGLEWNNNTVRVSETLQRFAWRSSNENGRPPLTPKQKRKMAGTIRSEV

In the case of `COc1ccccc1N=Nc1ccc(O)c2ncccc12`, the EC50 (cells [1]) is reported as 38.7 µM (active), the EC50 [2] is reported as 1.28 µM (active) and the EC50 [3] is reported as > 160 µM (inactive). The EC50 [4] was 2.29 µM (active), the IC50 (Nonstructural protein 1) was 12.4 µM (active) and the EC50 [5] was 1.17 µM (active). For the same compound, the EC50 (cells [6]) was 102 µM (active), the AC50 (Caspase-6) was 34.5 µM (active) and the CC50 (Vero) was 12.2 µM (active). The AC50 [7] was 3.68 µM (active), the AC50 [8] was 11.8 µM (active) and the EC50 (Streptococcus) was 10.3 µM (active).
For `[O-][n+]1c2c([n+]([O-])c3cc(Br)ccc31)CCC2`, the IC50 (Protein Tat) was 8.44 µM (inconclusive).
In the case of `CCOc1ccc2[nH]c(=O)c(CN(Cc3ccco3)C(=O)c3ccc(Br)cc3)cc2c1`, the IC50 (Protein Tat) is reported as > 100 µM (active).
With `O=C(CSc1nc2cc(Cl)ccc2s1)NCC1CCCO1` (stereo not given) the AC50 [9] was 30.5 µM (active).
With `C[C@@H]1CCCCO[C@H](CN(C)CC2CCCCC2)[C@H](C)CN([C@H](C)CO)C(=O)c2cc(NC(=O)Nc3ccc4c(c3)OCO4)ccc2O1` the AC50 [10] was 16.2 µM (active) and the AC50 [11] was 4.39 µM (active).
For `COc1cccc(CN2C[C@@H]3N[C@H](C2)[C@@H]3c2ccc(-c3ccccc3OC)cc2)c1`, the AC50 [9] was 28.5 µM (active).
In the case of `COC1C(O)C(C)OC(OC2C(Oc3cccc4c(O)c5c(=O)oc6ccc(C)c7c(=O)oc(c34)c5c67)OC(C)C(O)C2O)C1O` (stereo not given), the GI50 (P388/ADR) is reported as 7.08 µM (inactive), the GI50 (P388) is reported as 0.598 µM (active) and the AC50 [8] is reported as > 20 µM (inactive). For the same compound, the GI50 (SN12K1) was 0.593 µM (active).
For `CCC1CN2CCc3cc(OC)c(OC)cc3C2CC1CC1NCCc2c1[nH]c1ccc(O)cc21` (stereo not given), the AC50 [12] was 0.601 µM (active), the AC50 [13] was 0.658 µM (active) and the AC50 [14] was 0.075 µM (active). For the same compound, the AC50 [15] was 0.219 µM (active), the AC50 (Paired box protein Pax-8) was < 0.26 µM (active) and the AC50 [16] was 0.153 µM (active). For the same compound, the AC50 [17] was 18 µM (active), the IC50 [18] was 70.2 µM (active) and the IC50 [19] was 49.8 µM (inactive). The AC50 [20] was 0.209 µM (active), the CC50 [21] was 1.61 µM (active) and the AC50 [9] was 0.471 µM (active). The AC50 [22] was < 0.26 µM (active).
